Measurements taken from patent US8420823B2, “Long-chain fatty acyl elongase inhibitor comprising arylsulfonyl derivative as active ingredient” (MSD K.K., priority 2008, dated 2013).
Structures can show the parent of a compound that is named as a salt.

These molecules were tested against T1, human LCE (Homo sapiens, UniProt Q9H5J4) (assay: LCE enzyme activity-inhibitory test). Details: [14C]-malonyl CoA / palmitoyl CoA substrate, 37° C., 90 minutes.
T1 sequence (Q9H5J4 1-265): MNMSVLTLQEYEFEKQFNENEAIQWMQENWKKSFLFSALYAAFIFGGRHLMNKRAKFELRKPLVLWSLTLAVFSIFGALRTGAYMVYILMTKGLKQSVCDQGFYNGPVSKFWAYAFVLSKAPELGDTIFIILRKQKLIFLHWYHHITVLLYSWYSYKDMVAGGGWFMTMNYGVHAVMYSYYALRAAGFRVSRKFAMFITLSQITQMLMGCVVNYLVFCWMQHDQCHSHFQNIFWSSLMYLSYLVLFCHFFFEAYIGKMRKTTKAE
Assay type: biochemical
Procedure: Pharmacological Test Example 1 (LCE Enzyme Activity-inhibitory Test)
A test compound was dissolved in dimethyl sulfoxide (DMSO to be 10 mM), and then diluted with DMSO to prepare a 1000-fold concentrated solution of the test concentration. An improved Moon et al's method (J. Biol. Chem., Vol. 276, pp. 45358-45366, 2001) was employed for the LCE enzyme activity-inhibitor test. Concretely, the diluted compound was applied to a 96-well assay plate (Corning, 96-well assay block) in an amount of 1.0 μL/well; 50 μL of a phosphate buffer solution (100 mM potassium phosphate buffer, pH 6.5), and 25 μL of a substrate solution (100 mM potassium phosphate buffer (pH 6.5), 4.0 μM rotenone, 80 μM fatty acid-free bovine serum albumin, 160 μM palmitoyl CoA, 80 μM malonyl CoA, 3.5 μM [^14C]-malonyl CoA (1.92 GBq/mmol, by Amersham)) were added to each well; 25 μL of an enzyme solution (100 mM potassium phosphate buffer (pH 6.5), 100 μg/mL human LCE) was added thereto; the top of the plate was airtightly sealed up; and this was incubated with gently shaking and stirring at 37° C. for 90 minutes. Next, 100 μL of 5 M hydrochloric acid was added to each well, and the assay plate was stirred at room temperature for 5 minutes to stop the enzyme reaction with hydrolyzing the acyl CoA. Next, the enzyme reaction solution in each well was adsorbed by each well of a 96-well GF/C filter plate (Perkin Elmer Unifilter 96 GF/C); the individual wells were washed with water to remove the non-adsorbed malonyl CoA; and the GF/C filter plate was dried at 50° C. for 60 minutes. Next, 30 μL of a scintillator (Perkin Elmer Microscinti 0) was added to each well; then the top of the plate was sealed up; and the fixed [^14C] radioactivity was measured with a microplate scintillation counter (Perkin Elmer TopCount) to be the enzyme activity. The human LCE enzyme-inhibitory activity of the test compound was calculated, based on the radioactivity of the DMSO-added well with no test compound therein as a control.

| Structure (SMILES) | IC50 [nM] |
| --- | --- |
| CC(C)Oc1ccc(NC(=O)c2cccc(S(=O)(=O)N3C[C@H]4C[C@@H]3CO4)c2)cc1 [Example 1, N-(4-isopropoxyphenyl)-3-[(1R,4R)-2-oxa-5-azabicyclo[2.2.1]hept-5-ylsulfonyl]benzamide] | 2200 |
| CC(C)Oc1ccc(NC(=O)c2cccc(S(=O)(=O)N3CCc4[nH]ncc4C3)c2)cc1 [Example 3, N-(4-isopropoxyphenyl)-3-(1,4,6,7-tetrahydro-5H-pyrazolo[4,3-c]pyridin-5-ylsulfonyl)benzamide trifluoroacetate] | 7400 |
| CC(C)Oc1ccc(NC(=O)c2cccc(S(=O)(=O)N3CC4CC5CC(C4)CC3C5)c2)cc1 [Example 4, 3-(4-Azatricyclo[4.3.1.1^3,8]undec-4-ylsulfonyl)-N-(4-isopropoxyphenyl)benzamide] | 5100 |
| CC(C)Oc1ccc(NC(=O)c2cccc(S(=O)(=O)NC(C3CC3)C3CC3)c2)cc1 [Example 6, 3-{[(dicyclopropylmethyl)amino]sulfonyl}-N-(4-isopropoxyphenyl)benzamide] | 1100 |
| CC(C)Oc1ccc(NC(=O)c2cccc(S(=O)(=O)N3C[C@@H]4C[C@H]3CN4C)c2)cc1 [Example 8, N-(4-isopropoxyphenyl)-3-{[(1S,4S)-5-methyl-2,5-diazabicyclo[2.2.1]hept-2-yl]sulfonyl}benzamide trifluoroacetate] | 9600 |
| CC(C)Oc1ccc(NC(=O)c2cccc(S(=O)(=O)N3C[C@@H]4C[C@H]3CO4)c2)cc1 [Example 10, N-(4-isopropoxyphenyl)-3-[(1S,4S)-2-oxa-5-azabicyclo[2.2.1]hept-5-ylsulfonyl]benzamide] | 760 |
| CC(C)Oc1ccc(NC(=O)c2cccc(S(=O)(=O)N3CCCC(c4nncn4C)C3)c2)cc1 (stereo not shown) [Example 11, N-(4-isopropoxyphenyl)-3-{[3-(4-methyl-4H-1,2,4-triazol-3-yl)piperidin-1-yl]sulfonyl}benzamide trifluoroacetate] | 1000 |
| CC(C)Oc1ccc(NC(=O)c2cccc(S(=O)(=O)N3CCN4CCCC4C3)c2)cc1 (stereo not shown) [Example 12, 3-(Octahydropyrrolo[1,2-a]pyrazin-2(1H)-ylsulfonyl)-N-(4-isopropoxyphenyl)benzamide trifluoroacetate] | 6800 |
| CC(C)Oc1ccc(NC(=O)c2cccc(S(=O)(=O)N3CCN4CCCCC4C3)c2)cc1 (stereo not shown) [Example 13, N-(4-Isopropoxyphenyl)-3-(octahydro-2H-pyrido[1,2-a]pyrazin-2-ylsulfonyl)benzamide trifluoroacetate] | 5200 |
| CC(C)Oc1ccc(NC(=O)c2cccc(S(=O)(=O)N3CCCC(CN4CCOCC4)C3)c2)cc1 (stereo not shown) [Example 14, N-(4-Isopropoxyphenyl)-3-{[3-(morpholin-4-ylmethyl)piperidin-1-yl]sulfonyl}benzamide trifluoroacetate] | 1200 |
| CC(C)Oc1ccc(NC(=O)c2cccc(S(=O)(=O)N3CCC(F)(F)CC3)c2)cc1 [Example 17, 3-[(4,4-Difluoropiperidin-1-yl)sulfonyl]-N-(4-isopropoxyphenyl)benzamide] | 340 |
| COC1CCCN(S(=O)(=O)c2cccc(C(=O)Nc3ccc(OC(C)C)cc3)c2)C1 (stereo not shown) [Example 18, N-(4-isopropoxyphenyl)-3-[(3-methoxypiperidin-1-yl)sulfonyl]benzamide] | 510 |
| CC(C)Oc1ccc(NC(=O)c2cccc(S(=O)(=O)N3CCCC(F)(F)C3)c2)cc1 [Example 19, 3-[(3,3-Difluoropiperidin-1-yl)sulfonyl]-N-(4-isopropoxyphenyl)benzamide] | 1500 |
| CC(C)Oc1ccc(NC(=O)c2cccc(S(=O)(=O)N3CCCC(OCc4cccnc4)C3)c2)cc1 (stereo not shown) [Example 20, N-(4-isopropoxyphenyl)-3-{[3-(pyridin-3-ylmethoxy)piperidin-1-yl]sulfonyl}benzamide trifluoroacetate] | 530 |
| CC(C)Oc1ccc(NC(=O)c2cccc(S(=O)(=O)N3CCc4o[nH]c(=O)c4C3)c2)cc1 [Example 22, N-(4-isopropoxyphenyl)-3-[(3-oxo-2,3,6,7-tetrahydroisoxazolo[4,5-c]pyridin-5(4H)-yl)sulfonyl]benzamide] | 5100 |
| CC(C)Oc1ccc(NC(=O)c2cccc(S(=O)(=O)N3CCC[C@H]3C)c2)cc1 [Example 24, N-(4-isopropoxyphenyl)-3-{[(2R)-2-methylpyrrolidin-1-yl]sulfonyl}benzamide] | 670 |
| CC(C)Oc1ccc(NC(=O)c2cccc(S(=O)(=O)NCC(C)c3nc4ccccc4[nH]3)c2)cc1 (stereo not shown) [Example 25, 3-({[2-(1H-benzimidazol-2-yl)propyl]amino}sulfonyl)-N-(4-isopropoxyphenyl)benzamide] | 280 |
| CC(C)c1ccc(NC(=O)c2cccc(S(=O)(=O)N3[C@H](C)CC[C@H]3C)c2)cc1 [Example 26, 3-{[(2R,5R)-2,5-dimethylpyrrolidin-1-yl]sulfonyl}-N-(4-isopropylphenyl)benzamide] | 3500 |

These reach a lower IC50. Values come first.

| IC50 [nM] | Structure (SMILES) |
| --- | --- |
| 36 | CC(C)Oc1ccc(NC(=O)c2cccc(S(=O)(=O)N3CC4CCC3C4)c2)cc1 (stereo not shown) [Example 2, 3-(2-Azabicyclo[2.2.1]hept-2-ylsulfonyl)-N-(4-isopropoxyphenyl)benzamide] |
| 30 | CC(C)Oc1ccc(NC(=O)c2cccc(S(=O)(=O)N3CCCC(c4nc5ccccc5[nH]4)C3)c2)cc1 (stereo not shown) [Example 5, 3-{[3-(1H-benzimidazol-2-yl)piperidin-1-yl]sulfonyl}-N-(4-isopropoxyphenyl)benzamide] |
| 51 | CC(C)Oc1ccc(NC(=O)c2cccc(S(=O)(=O)N3CCCC(c4nc5ccccc5o4)C3)c2)cc1 (stereo not shown) [Example 7, 3-{[3-(1,3-benzoxazol-2-yl)piperidin-1-yl]sulfonyl}-N-(4-isopropoxyphenyl)benzamide] |
| 150 | CC(C)Oc1ccc(NC(=O)c2cccc(S(=O)(=O)N3CCOC(COc4ccccc4)C3)c2)cc1 (stereo not shown) [Example 9, N-(4-isopropoxyphenyl)-3-{[2-(phenoxymethyl)morpholin-4-yl]sulfonyl}benzamide] |
| 120 | CC(C)Oc1ccc(NC(=O)c2cccc(S(=O)(=O)N3CCC(F)CC3)c2)cc1 [Example 15, 3-[(4-Fluoropiperidin-1-yl)sulfonyl]-N-(4-isopropoxyphenyl)benzamide] |
| 110 | CC(C)Oc1ccc(NC(=O)c2cccc(S(=O)(=O)N3CC4CCC3CC4)c2)cc1 [Example 16, 3-(2-Azabicyclo[2.2.2]oct-2-ylsulfonyl)-N-(4-isopropoxyphenyl)benzamide] |
| 200 | CC(C)Oc1ccc(NC(=O)c2cccc(S(=O)(=O)N3CCCC(OCc4ccccn4)C3)c2)cc1 (stereo not shown) [Example 21, N-(4-isopropoxyphenyl)-3-{[3-(pyridin-2-ylmethoxy)piperidin-1-yl]sulfonyl}benzamide trifluoroacetate] |
| 130 | CC(C)Oc1ccc(NC(=O)c2cccc(S(=O)(=O)N3CCC[C@@H]3C)c2)cc1 [Example 23, N-(4-isopropoxyphenyl)-3-{[(2S)-2-methylpyrrolidin-1-yl]sulfonyl}benzamide] |
| 190 | CC(C)c1ccc(NC(=O)c2cccc(S(=O)(=O)N3CCCCCC3)c2)cc1 [Example 27, 3-(Azepan-1-ylsulfonyl)-N-(4-isopropylphenyl)benzamide] |
| 170 | CC(C)c1ccc(NC(=O)c2cccc(S(=O)(=O)N3CCCC3)c2)cc1 [Example 28, N-(4-isopropylphenyl)-3-(pyrrolidin-1-ylsulfonyl)benzamide] |
